Source: PMC8300810, “Antibacterial Residue Excretion via Urine as an Indicator for Therapeutical Treatment Choice and Farm Waste Treatment” (Antibiotics, 2021)

Experiments:
[1] = Antimicrobial excretion in urine of treated pigs through the withdrawal period, LC-MS/MS
Protocol: Each of these compounds was administered via intramuscular (IM) injection.
A total of 66 previously untreated piglets were procured at treatment onset. Starting at 40 days before administration of the compounds, they were kept on the premises of the Faculty of Veterinary Sciences at the University of Zaragoza (Zaragoza, Spain) and used in tandem for another study. […] From them, 39 were female and 27, male. During acclimatization and withdrawal periods, the piglets were fed ad libitum with a special mixed feed free of antibiotics (ARS Alendi S.A., Huesca, Spain), and water was provided from a separate, controlled water circuit. Piglets were raised in separate pens depending on the antibiotic with which they were administrated.
Urine was collected on different days within the withdrawal period determined by the respective antimicrobial drug manufacturers. It was collected from live pigs via mobilization of the animal and bladder stimulation. At pre-set time intervals, pigs were slaughtered and urine was obtained via bladder puncture; at the same time, urine was gathered from living animals subjected to the same treatment and withdrawal period. Consequently, urine was collected from 1 to 9 pigs on each day of analysis. As animals were bred in batches and slaughtered all along the withdrawal period, the number of sampled animals decreased as the withdrawal period progressed. Samples were kept aliquoted and frozen at −20 °C until analysis.
1.5 mL of urine were spiked with 100 µL of IS spiking solution. 100 µL 0.1M EDTA and 5 mL of purified water were added and mixed. 500 µL were taken and further diluted with 1500 µL of purified water. It was filtered through 0.2 µm directly into HPLC vials.
All urine samples were analysed using a SCIEX Exion LC coupled to a TripleQuad 6500+ triple quadrupole detector equipped with an Acquity UPLC® BEH C18 column (1.7 µm, 2.1 × 100 mm). The mobile phase consisted of eluent A (0.1% formic acid in water) and eluent B (0.1% formic acid in acetonitrile) at a flow rate of 0.4 mL min^−1. […] The injected volume was 5 µL. Positive electrospray ionisation was used, and analytes were detected in MRM mode by monitoring 2 transitions for each compound of interest (Table 3). Regardless of the compound analysed, the technique’s limit of detection (LoD) was 10 ppb.
For each day of the withdrawal period pre-set in this study to evaluate the behaviour of antimicrobials, 1 to 9 samples of urine coming from different animals subjected to the same treatment and withdrawal period were analysed via LC-MS/MS.
The rates of elimination (λz) of antibiotics from urine were determined via regression analysis. The corresponding half-lives of elimination(T1/2) were calculated according to the following equation:
Equation (1): Half-life of elimination where T1/2 is the half-life of elimination and λZ is the rate of elimination. (1) T1/2=Ln (2)/λz

[2] = Concentration in urine compared with muscle of treated pigs; assay type: in vivo; conditions: Figure 4
Excerpt: Urine samples were obtained in parallel with muscle and blood samples gathered for the study performed by Serrano et al.. That study’s aim was to find a suitable matrix for ante mortem tests for the detection of antimicrobial compounds, which would avoid the slaughter of contaminated animals and thus the entrance of antimicrobial compounds into the food chain. The matrix should be characterized via an easy extraction procedure from living animals and a good correlation with the concentration found in muscle. […] These findings agree with those described previously by Seymour et al. for cows: urine samples from treated cows tested positive for the presence of antimicrobial residues even after the end of the withdrawal period set by the manufacturer. Moreover, this issue could also be interpreted as the occurrence of higher levels of antimicrobials in urine compared to other tissues such as muscle.
With the exception of sulfamethoxypyrydazine, concentrations described in urine were much higher than the ones described for muscle.

[3] = cited from earlier work
[4] = both, Landrace × Large White, pig, in vivo

| Structure (SMILES) | total urine elimination [1, 4] | time period required to complete the excretion by urine (in words) ([1]; urine, pigs, estimated from the regression) | concentrations in urine compared to muscle [2] | elimination period in urine [1, 4] | half-life ([1]; both, Landrace × Large White, pig, urine, im) | concentration in urine at the beginning of the withdrawal period (comparison among compounds) ([1]; pig, in vivo) | time period required to complete the excretion by urine (in words) ([1]; pig, in vivo) | fraction of administered antibiotic eliminated in the faeces [3] | fraction of administered antibiotic excreted in urine via glomerular filtration [3] |
| --- | --- | --- | --- | --- | --- | --- | --- | --- | --- |
| CCN1CCN(c2cc3c(cc2F)c(=O)c(C(=O)O)cn3C2CC2)CC1 [Enrofloxacin] | ca. 3 weeks | almost three weeks | much higher | – | – | – | – | – | – |
| CN(C)[C@@H]1C(O)=C(C(N)=O)C(=O)[C@@]2(O)C(O)=C3C(=O)c4c(O)cccc4[C@@](C)(O)[C@H]3[C@H](O)[C@@H]12 [Oxytetracycline] | – | – | much higher | over 2 months | 100 h | highest concentrations | more than two months | 40% | 60% |
| COc1ccc(NS(=O)(=O)c2ccc(N)cc2)nn1 [Sulfamethoxypyridazine] | ca. 1 weeks | – | – | – | – | – | – | – | – |
